# Measurements as given in US10874743B2, “IRAK degraders and uses thereof” (Kymera Therapeutics, Inc., priority 2017, dated 2020).
# Target: T1, IRAK4 (Homo sapiens, UniProt Q9NWZ3)
# T1 sequence (Q9NWZ3 1-460): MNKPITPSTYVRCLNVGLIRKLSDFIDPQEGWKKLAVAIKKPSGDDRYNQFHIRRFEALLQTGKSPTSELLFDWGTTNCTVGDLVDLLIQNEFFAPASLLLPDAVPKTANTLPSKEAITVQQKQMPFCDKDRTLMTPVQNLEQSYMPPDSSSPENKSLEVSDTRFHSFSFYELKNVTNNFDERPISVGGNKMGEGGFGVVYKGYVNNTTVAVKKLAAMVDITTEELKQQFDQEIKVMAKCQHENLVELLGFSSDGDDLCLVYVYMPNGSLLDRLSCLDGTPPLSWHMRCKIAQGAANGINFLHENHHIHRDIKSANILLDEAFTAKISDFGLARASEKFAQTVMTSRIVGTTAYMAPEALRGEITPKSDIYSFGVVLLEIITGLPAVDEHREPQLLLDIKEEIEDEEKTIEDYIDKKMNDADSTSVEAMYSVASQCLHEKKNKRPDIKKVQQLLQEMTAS
# Experiment: OCI-LY-10 degradation assay (western blot, % IRAK4 degraded after 4 hours)
# Type: cell-based
# Design: endogenous in cells; host or cells: OCI-LY10
# Details: OCI-LY10 cells; for OCI-LY10 % IRAK4 Degradation (0.01 uM) / OCI-LY10 % IRAK4 Degradation (0.1 uM) / OCI-LY10 % IRAK4 Degradation (1 uM): 4 hours; for OCI-LY10 % IRAK4 Degradation (0.01 uM): 0.01 uM compound; for OCI-LY10 % IRAK4 Degradation (0.1 uM): 0.1 uM compound; for OCI-LY10 % IRAK4 Degradation (1 uM): 1 uM compound; for OCI-LY10 % IRAK4 Degradation: IRAK4 degraded after 4 hours, western blot
# Method: Compounds were reconstituted in DMSO to make stock solutions at concentration of 60 mM. THP-1 and OCI-LY10 cells were maintained in RPMI-1640 medium containing 10% FBS, 0.5 μM 2-ME or 20% FBS, 55 μM 2-ME, and 1% L-Glutamine respectively.
# Cells were seeded into 6-well plates with 5e6 cells per well. 200 μL of diluted compounds were added to cells to the final concentration of 0.003-10 μM. After 4 or 24 hour-incubation at 37° C., cells were collected into 2 mL Eppendorf tubes and centrifuged at 1,000 rpm for 5 min. The cell pellets were washed with 1×DPBS once and resuspended in 60 μL lysis buffer. The cells were lysed on ice for 10 min, then centrifuged at 14,000 rpm for 10 min at 4° C. and the supernatants were collected for western blots. For THP-1 cells, the lysis buffer contained 40 mM pH 7.4 HEPES, 140 mM NaCl, 2.5 mM EDTA, 1% NP-40, 0.1% SDS, and protease inhibitor cocktail (Roche, Cat. No. 05892791001). For OCI-LY10 cells, RIPAbuffer (Thermo Fisher, 89900) with Halt Protease and Phosphatase Inhibitor Cocktail (Thermo Fisher, 78446) was applied.
# The protein concentration of cell lysates was quantified with Pierce™ BCA Protein Assay Kit (Pierce, 23227). Albumin standards at different concentrations were prepared, involving 2,000 ug/mL, 1,500 ug/mL, 1,000 ug/mL, 750 ug/mL, 500 ug/mL, 250 ug/mL, 125 ug/mL, and 25 ug/mL. BCA working reagents were prepared by mixing BCA reagent A with reagent B in 50:1 ratio. 200 μL of the BCA working reagents were added to 25 μL of BCA standard or cell lysates in microplate, and mixed thoroughly on a plate shaker for 30 seconds. After incubation at 37° C. for 30 min, the absorbance of samples at 562 nm were measured with EnVision Plate Reader.
# Protein lysates were prepared in NuPAGE™ LDS sample buffer and NuPAGE™ sample reducing agent, and incubated at 95° C. for 5 min. For western blots, 20-25 μg of total proteins were resolved in 4-12% Bis-Tris gels (Introgen, WG1403A) or 10% Bis-Tris Midi gels (Invitrogen, WG1202BOX) running with 1×MOPS SDS running buffer (Invitrogen, NP0001) or 1×MES SDS running buffer (Invitrogen, NP0002). The proteins were transferred to low fluorescence PVDF membranes using the Trans-Blot Turbo Transfer System. Membranes were then blocked in Odyssey blocking buffer at RT for 1 h followed by primary incubation at 4° C. overnight. The primary antibodies were IRAK1 rabbit monoclonal antibody (CST, #4504S, 1:500), IRAK3 rabbit polyclonal antibody (CST, #4369, 1:500), IRAK4 rabbit polyclonal antibody (CST, #4363S, 1:1,000), MyD88 rabbit monoclonal antibody (Abcam, Ab133739, 1:2,000), j3-actin mouse monoclonal antibody (Sigma, A5441, 10,000), and Gapdh mouse monoclonal antibody (Millipore, MAB374, 1:5,000). Membranes were washed three times with 1×TBST, and then incubated with IR Dye 800 CW Goat anti-rabbit (Licor, #926-32211) and IR Dye 700 CW Goat anti-mouse (Licor, #926-68070) secondary antibodies in 1:10,000 dilution at RT for 1 h. The western blot images were obtained using Odyssey Imaging System.
# OCI-LY-10 results at 4 hours. The letter codes indicate the percentage of IRAK4 degraded after 4 hours: A (>50% degradation), B (>20-50% degradation) and C (<20% degradation)
# OCI-LY-10 results at 4 hours. The letter codes for % IRAK4 degradation indicate the percentage of IRAK4 degraded after 4 hours across three different concentrations: A (>50% degradation), B (>20-50% degradation) and C (<20% degradation).
smiles,measurement,value
CN(CCCCCOCCCc1cccc2c1C(=O)N(C1CCC(=O)NC1=O)C2=O)Cc1ccc(-n2cc(NC(=O)c3coc(-c4ccnc(NCC5CC5)c4)n3)c(C(N)=O)n2)cc1 (stereo not shown) [I-312],OCI-LY10 % IRAK4 Degradation (0.01 uM),C (<20% degradation)
same,OCI-LY10 % IRAK4 Degradation (0.1 uM),A (>50% degradation)
same,OCI-LY10 % IRAK4 Degradation (1 uM),A (>50% degradation)
NC(=O)c1nn(-c2ccc(CNCCCCCCCCCc3cccc4c3C(=O)N(C3CCC(=O)NC3=O)C4=O)cc2)cc1NC(=O)c1coc(-c2ccnc(NCC3CC3)c2)n1 (stereo not shown) [I-317],OCI-LY10 % IRAK4 Degradation (0.01 uM),C (<20% degradation)
same,OCI-LY10 % IRAK4 Degradation (0.1 uM),C (<20% degradation)
same,OCI-LY10 % IRAK4 Degradation (1 uM),B (>20-50% degradation)
O=C1CCC(N2C(=O)c3cccc(NCCOCCOCCNC(=O)c4ccc(-n5cc(NC(=O)c6coc(-c7ccnc(NCC8CC8)c7)n6)c(C(F)F)n5)cc4)c3C2=O)C(=O)N1 (stereo not shown) [I-246],OCI-LY10 % IRAK4 Degradation (0.01 uM),C (<20% degradation)
same,OCI-LY10 % IRAK4 Degradation (0.1 uM),A (>50% degradation)
same,OCI-LY10 % IRAK4 Degradation (1 uM),A (>50% degradation)
"O=C1CCC(N2C(=O)c3cccc(NCCOCc4ccc(COCCNC(=O)[C@H]5CC[C@H](NC(=O)c6cnc(Nc7ccc8cnccc8n7)cc6NC6CC6)CC5)nc4)c3C2=O)C(=O)N1 (stereo partly shown) [I-41, 6-((1,6-naphthyridin-2-yl)amino)-4-(cyclopropylamino)-N-((1r,4r)-4-((2-((5-((2-((2-(2,6-dioxopiperidin-3-yl)-1,3-dioxoisoindolin-4-yl)amino)ethoxy)methyl)pyridin-2-yl)methoxy)ethyl)carbamoyl)cyclohexyl)nicotinamide]",OCI-LY10 % IRAK4 Degradation,C (<20% degradation)
CC(OCCOCCNc1cccc2c1C(=O)N(C1CCC(=O)NC1=O)C2=O)C(F)CNC(=O)c1cnc(Nc2ccc3cnccc3n2)cc1NC1CC1 (stereo not shown) [I-84],OCI-LY10 % IRAK4 Degradation,C (<20% degradation)
NC(=O)c1nn(-c2ccc(C(=O)NCCOCCOCCCc3cccc4c3C(=O)N(C3CCC(=O)NC3=O)C4=O)cc2)cc1NC(=O)c1coc(-c2ccnc(NCC(F)(F)F)c2)n1 (stereo not shown) [I-147],OCI-LY10 % IRAK4 Degradation,A (>50% degradation)
O=C1CCC(N2C(=O)c3cccc(CCCNCCCCCNC(=O)c4ccc(-n5cc(NC(=O)c6coc(-c7ccnc(NCC8CC8)c7)n6)c(C(F)(F)F)n5)cc4)c3C2=O)C(=O)N1 (stereo not shown) [I-221],OCI-LY10 % IRAK4 Degradation (0.01 uM),B (>20-50% degradation)
same,OCI-LY10 % IRAK4 Degradation (0.1 uM),B (>20-50% degradation)
same,OCI-LY10 % IRAK4 Degradation (1 uM),A (>50% degradation)
NC(=O)c1nn(-c2ccc(CNCCOCCOCCOCCOCC#Cc3cccc4c3C(=O)N(C3CCC(=O)NC3=O)C4=O)cc2)cc1NC(=O)c1coc(-c2ccnc(NCC(F)(F)F)c2)n1 (stereo not shown) [I-323],OCI-LY10 % IRAK4 Degradation (0.01 uM),B (>20-50% degradation)
same,OCI-LY10 % IRAK4 Degradation (0.1 uM),A (>50% degradation)
same,OCI-LY10 % IRAK4 Degradation (1 uM),A (>50% degradation)
CC(COCC(F)CNC(=O)c1cnc(Nc2ccc3cnccc3n2)cc1NC1CC1)OCCOCCNc1cccc2c1C(=O)N(C1CCC(=O)NC1=O)C2=O (stereo not shown) [I-70],OCI-LY10 % IRAK4 Degradation,C (<20% degradation)
NC(=O)c1nn(-c2ccc(C(=O)NCCOCCOCCNc3cccc4c3C(=O)N(C3CCC(=O)NC3=O)C4=O)cc2)cc1NC(=O)c1coc(-c2ccncc2)n1 (stereo not shown) [I-140],OCI-LY10 % IRAK4 Degradation,B (>20-50% degradation)
O=C1CCC(N2C(=O)c3cccc(CCOCCN4CCC(n5cc(NC(=O)c6coc(-c7ccnc(NCC8CC8)c7)n6)c(C(F)F)n5)CC4)c3C2=O)C(=O)N1 (stereo not shown) [I-257],OCI-LY10 % IRAK4 Degradation (0.01 uM),C (<20% degradation)
same,OCI-LY10 % IRAK4 Degradation (0.1 uM),C (<20% degradation)
same,OCI-LY10 % IRAK4 Degradation (1 uM),C (<20% degradation)
"NC(=O)c1nn(-c2ccc(COCCOCCOCCOCCNC(=O)COc3cccc4c3C(=O)N(C3CCC(=O)NC3=O)C4=O)cc2)cc1NC(=O)c1coc(-c2ccnc(NCC(F)(F)F)c2)n1 (stereo not shown) [I-105, N-[3-carbamoyl-1-[4-[2-[2-[2-[2-[[2-[2-(2,6-dioxo-3-piperidyl)-1,3-dioxo-isoindolin-4-yl]oxyacetyl]amino]ethoxy]ethoxy]ethoxy]ethoxymethyl]phenyl]pyrazol-4-yl]-2-[2-(2,2,2-trifluoroethylamino)-4-pyridyl]oxazole-4-carboxamide]",OCI-LY10 % IRAK4 Degradation,A (>50% degradation)
CC(C)(OCCOCCNCCOCCNc1cccc2c1C(=O)N(C1CCC(=O)NC1=O)C2=O)C(F)CNC(=O)c1cnc(-n2ncc3cc(C#N)cnc32)cc1NC1CC1 (stereo not shown) [I-131],OCI-LY10 % IRAK4 Degradation,C (<20% degradation)
"NC(=O)c1nn(-c2ccc(C(=O)NCC#CC#CCCNc3cccc4c3C(=O)N(C3CCC(=O)NC3=O)C4=O)cc2)cc1NC(=O)c1coc(-c2ccnc(NCC(F)(F)F)c2)n1 (stereo not shown) [I-178, N-[3-carbamoyl-1-[4-[7-[[2-(2,6-dioxo-3-piperidyl)-1,3-dioxo-isoindolin-4-yl]amino]hepta-2,4-diynylcarbamoyl]phenyl]pyrazol-4-yl]-2-[2-(2,2,2-trifluoroethylamino)-4-pyridyl]oxazole-4-carboxamide]",OCI-LY10 % IRAK4 Degradation,C (<20% degradation)
CN(CCNCCCc1cccc2c1C(=O)N(C1CCC(=O)NC1=O)C2=O)C(=O)c1ccc(-n2cc(NC(=O)c3coc(-c4ccncc4)n3)c(C(F)F)n2)cc1 (stereo not shown) [I-364],OCI-LY10 % IRAK4 Degradation (0.01 uM),C (<20% degradation)
same,OCI-LY10 % IRAK4 Degradation (0.1 uM),C (<20% degradation)
same,OCI-LY10 % IRAK4 Degradation (1 uM),C (<20% degradation)
O=C1CCC(N2C(=O)c3ccc(NCCOCCN4CCN(CCOCCNCc5ccc(-n6cc(NC(=O)c7coc(-c8ccnc(NCC9CC9)c8)n7)c(C(F)F)n6)cc5)CC4)cc3C2=O)C(=O)N1 (stereo not shown) [I-349],OCI-LY10 % IRAK4 Degradation (0.01 uM),C (<20% degradation)
same,OCI-LY10 % IRAK4 Degradation (0.1 uM),B (>20-50% degradation)
same,OCI-LY10 % IRAK4 Degradation (1 uM),A (>50% degradation)
N#Cc1cnc2c(cnn2-c2cc(NC3CC3)c(C(=O)N[C@H]3C[C@H](COCCOCCOCCNc4cccc5c4C(=O)N(C4CCC(=O)NC4=O)C5=O)C3)cn2)c1 (stereo partly shown) [I-34],OCI-LY10 % IRAK4 Degradation,C (<20% degradation)
O=C1CCC(N2C(=O)c3ccc(CCCN4CCC(n5cc(NC(=O)c6coc(-c7ccnc(NCC8CC8)c7)n6)c(C(F)F)n5)CC4)cc3C2=O)C(=O)N1 (stereo not shown) [I-264],OCI-LY10 % IRAK4 Degradation (0.01 uM),C (<20% degradation)
same,OCI-LY10 % IRAK4 Degradation (0.1 uM),C (<20% degradation)
same,OCI-LY10 % IRAK4 Degradation (1 uM),C (<20% degradation)
Cn1c(=O)n(C2CCC(=O)NC2=O)c2cccc(CCCOCCOCCNCc3ccc(-n4cc(NC(=O)c5coc(-c6ccnc(NCC(F)(F)F)c6)n5)c(C(N)=O)n4)cc3)c21 (stereo not shown) [I-328],OCI-LY10 % IRAK4 Degradation (0.01 uM),A (>50% degradation)
same,OCI-LY10 % IRAK4 Degradation (0.1 uM),A (>50% degradation)
same,OCI-LY10 % IRAK4 Degradation (1 uM),A (>50% degradation)
CC(C)(OCCOCCOCCNc1cccc2c1C(=O)N(C1CCC(=O)NC1=O)C2=O)C(F)CNC(=O)c1cnc(Nc2ccc3ncsc3c2)cc1NC1CC1 (stereo not shown) [I-65],OCI-LY10 % IRAK4 Degradation,C (<20% degradation)
